Some test systems named below: A498 renal; HCC-2998 colon; MDA-N; SF-539 CNS; SK-MEL-5 melanoma; SNB-75 CNS; U251 CNS; UACC-257 melanoma; UO-31 renal; LOX IMVI melanoma.
What all share (assay): growth of human tumour cells (NCI), 48 h

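A five-concentration, 48-hour dose response in 96-well plates underlies each endpoint, interpolated linearly between surrounding concentrations. TGI marks complete inhibition of growth.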 Some results are limits rather than exact numbers.

On to `C=Cc1c(C)c(OC)cc2c1Oc1ccc(OC)c(C)c1CC2`, for which the TGI with A498 renal, with HCC-2998 colon, in the test with MDA-N, with SF-539 CNS, in the test on SK-MEL-5 melanoma and in the test with SNB-75 CNS was more than 100 µM in each case. Moreover, the TGI with U251 CNS, in the test on UACC-257 melanoma and with UO-31 renal was more than 100 µM throughout.

With `COc1ccc(-c2c(N)n(-c3nc4ccccc4s3)c(=O)c3cc([N+](=O)[O-])ccc23)cc1`, the TGI in the test with A498 renal was more than 100 µM; in the test on LOX IMVI melanoma, 48.3 µM; with MDA-N it was more than 100 µM; in the test on SF-539 CNS it was 19.6 µM; in the test with SNB-75 CNS it was 24.7 µM; in the test with U251 CNS it was 35.2 µM. Moreover, the figures for the TGI with UACC-257 melanoma and in the test on UO-31 renal were more than 100 µM and 46.7 µM, respectively.

With `COCn1c2ccc(OC(C)=O)cc2c2c(=O)oc(N(C)C)nc21`, the TGI in the test with A498 renal, with HCC-2998 colon, in the test with LOX IMVI melanoma, in the test on MDA-N, in the test with SF-539 CNS and in the test with SK-MEL-5 melanoma was more than 100 µM throughout. The TGI in the test with SNB-75 CNS, with U251 CNS and in the test with UACC-257 melanoma was more than 100 µM throughout.

On to `O=c1oc2ccccc2c2c(=O)c3ccc(OC/C(=N/O)c4ccc(Cl)cc4)cc3oc12`, for which the TGI was 15.6 µM in the test on A498 renal; 31.9 µM with LOX IMVI melanoma; 10.9 µM in the test on MDA-N; 23.8 µM with SF-539 CNS; 18.7 µM with SK-MEL-5 melanoma; 23.3 µM in the test on U251 CNS. In addition, the TGI in the test with UACC-257 melanoma was more than 100 µM; with UO-31 renal it was 30.8 µM.

In the case of `O=C(Cn1c2c(c3ccccc31)CCCC2)NC1CCCCC1`, the TGI in the test with A498 renal, in the test on HCC-2998 colon, with LOX IMVI melanoma, with MDA-N, in the test on SF-539 CNS and with SK-MEL-5 melanoma was more than 100 µM in each case. Further, the TGI in the test with UACC-257 melanoma and in the test with UO-31 renal was more than 100 µM throughout.

As for `COC(=O)C1CCC(=O)N1CN(C(C)=O)c1ccccc1` (stereo unspecified), the TGI in the test on A498 renal, in the test with LOX IMVI melanoma, in the test on MDA-N, in the test on SF-539 CNS, with SK-MEL-5 melanoma and in the test with SNB-75 CNS was more than 100 µM throughout. Besides, the TGI in the test on U251 CNS, with UACC-257 melanoma and in the test with UO-31 renal was more than 100 µM in each case.

Consider `CC1=NN(c2ccccc2)C(=O)/C1=C/c1ccc(O)cc1`, for which the TGI with A498 renal, with HCC-2998 colon, in the test on LOX IMVI melanoma, in the test with MDA-N, with SF-539 CNS and in the test with SK-MEL-5 melanoma was more than 100 µM in each case. Further, the TGI in the test with U251 CNS and in the test on UACC-257 melanoma was more than 100 µM in each case.

Take `CC1(C)CS(=O)(=O)CC(C)(C)C(=N/N)/C1=N\N`: the TGI in the test with A498 renal, in the test with HCC-2998 colon, in the test with LOX IMVI melanoma, in the test with MDA-N, in the test with SF-539 CNS and in the test with SK-MEL-5 melanoma was more than 100 µM each time. The TGI in the test with SNB-75 CNS, in the test with U251 CNS and with UACC-257 melanoma was more than 100 µM each time.

For `Cc1c(/C=N/NC(=S)Nc2ccccc2Cl)c(=O)n(-c2ccccc2)n1C`, the TGI in the test with A498 renal was more than 100 µM; with LOX IMVI melanoma it was more than 100 µM; with MDA-N, more than 100 µM; in the test on SF-539 CNS it was more than 100 µM; in the test on SK-MEL-5 melanoma, more than 100 µM; with SNB-75 CNS, 54.6 µM. The TGI in the test with U251 CNS, in the test with UACC-257 melanoma and with UO-31 renal was more than 100 µM each time.

With `CC(C)[C@@H]1NC(=O)[C@H]2N=C(O[C@@H]2C)[C@@H]2CCCN2C(=O)[C@H](Cc2ccccc2)NC(=O)[C@@H]2CSC(=N2)[C@@H](Cc2ccccc2)NC(=O)[C@@H]2CSC1=N2`, the TGI with HCC-2998 colon is more than 50 µM; in the test on LOX IMVI melanoma it was more than 50 µM; with MDA-N, more than 50 µM; with SF-539 CNS, more than 50 µM; in the test on SK-MEL-5 melanoma it was more than 50 µM; in the test with SNB-75 CNS it was 6.28 µM. For the same compound, the TGI in the test with U251 CNS, in the test on UACC-257 melanoma and in the test with UO-31 renal was more than 50 µM each time.

For the compound `COc1ccc(N2C(=O)C3c4[nH]c5ccc(C)cc5c4C4CCC(C)CC4C3C2=O)cc1` (stereo unspecified), the TGI was 85 µM with A498 renal; more than 100 µM in the test with LOX IMVI melanoma; more than 100 µM with MDA-N; more than 100 µM in the test on SF-539 CNS; more than 100 µM with SK-MEL-5 melanoma; more than 100 µM in the test on U251 CNS. Moreover, the TGI in the test with UACC-257 melanoma and in the test on UO-31 renal was more than 100 µM each time.

Regarding `O=C(c1ccccc1)c1ccc(COc2ccc(C(c3c(O)c4ccccc4oc3=O)c3c(O)c4ccccc4oc3=O)cc2)cc1`, the TGI was 33.5 µM in the test on HCC-2998 colon; 56.5 µM in the test on LOX IMVI melanoma; 62 µM in the test with MDA-N; 46.4 µM in the test on SF-539 CNS; 37.2 µM in the test with SK-MEL-5 melanoma; 32.7 µM in the test on SNB-75 CNS. Moreover, the figures for the TGI in the test with U251 CNS, with UACC-257 melanoma and with UO-31 renal were more than 100 µM, 38.7 µM and 77.3 µM, respectively.

`O=C1C2CC=CCC2C(=O)N1n1c(-c2ccccc2)n[nH]c1=O` (stereo unspecified): the TGI in the test with A498 renal, in the test with HCC-2998 colon, with LOX IMVI melanoma, in the test on MDA-N, in the test on SF-539 CNS and with SK-MEL-5 melanoma was more than 100 µM in each case. In addition, the TGI in the test with U251 CNS, in the test on UACC-257 melanoma and in the test with UO-31 renal was more than 100 µM throughout.

`CC1(C)CC(=O)c2c(nc3ccc4ccccc4c3c2-c2ccc(NC(=O)CCCC(=O)Nc3ccc(-c4c5c(nc6ccc7ccccc7c46)CC(C)(C)CC5=O)cc3)cc2)C1`: the TGI in the test on A498 renal, with LOX IMVI melanoma, in the test with MDA-N, with SF-539 CNS, in the test on SK-MEL-5 melanoma and in the test with SNB-75 CNS was more than 100 µM each time. Further, the TGI in the test on U251 CNS, in the test on UACC-257 melanoma and in the test on UO-31 renal was more than 100 µM throughout.

Consider `CN(C(=O)Cc1cc(Cl)c(Cl)cc1N=C=S)[C@H]1CCCC[C@@H]1N1CCCC1`, for which the TGI in the test on A498 renal amounted to 27 µM; in the test on LOX IMVI melanoma, 13.3 µM; in the test on MDA-N, 28.1 µM; in the test on SF-539 CNS it was 46 µM; with SK-MEL-5 melanoma, 27.8 µM; in the test with SNB-75 CNS it was 27.9 µM. Further, the TGI worked out at 28.2 µM with U251 CNS, 28 µM with UACC-257 melanoma and 29.1 µM with UO-31 renal.

Regarding `CC(=O)OCC(OC(C)=O)C(OC(C)=O)C(C=NN(C(C)=O)S(=O)(=O)c1ccc(/C=C2\NC(=O)NC2=O)cc1)OC(C)=O` (stereo unspecified), the TGI with A498 renal, in the test with HCC-2998 colon, in the test with MDA-N, with SF-539 CNS, with SK-MEL-5 melanoma and in the test on SNB-75 CNS was more than 100 µM throughout. For the same compound, the TGI in the test on U251 CNS, with UACC-257 melanoma and with UO-31 renal was more than 100 µM throughout.

`CN(C)c1ccc(N=Nc2ccc3nc[nH]c3c2)cc1`: the TGI with A498 renal is 41.5 µM; in the test with MDA-N, more than 100 µM; with SF-539 CNS, 36.9 µM; in the test on SK-MEL-5 melanoma, more than 100 µM; with SNB-75 CNS, 68.9 µM; in the test with U251 CNS it was 76.4 µM. For the same compound, the TGI is 59.5 µM in the test on UACC-257 melanoma and 65.9 µM in the test with UO-31 renal.

Consider `Cc1ccc(N2C(=O)C3c4[nH]c5ccccc5c4C4CCC(C(C)(C)C)CC4C3C2=O)cc1` (stereo unspecified), for which the TGI with A498 renal worked out at 31.3 µM; in the test with HCC-2998 colon, 56.1 µM; with LOX IMVI melanoma it was 26.6 µM; with MDA-N, 44.1 µM; in the test on SK-MEL-5 melanoma it was 36.4 µM; in the test with U251 CNS, 16.1 µM. In addition, the TGI in the test with UACC-257 melanoma amounted to 40.5 µM; with UO-31 renal it was 31.3 µM.

Turning to `N#C/C(=C\c1ccccc1)C(=O)Nc1nnc(-c2ccccc2)o1`, the TGI is 72.7 µM with A498 renal; more than 100 µM in the test with HCC-2998 colon; more than 100 µM in the test with LOX IMVI melanoma; more than 100 µM in the test with MDA-N; 38.3 µM in the test on SK-MEL-5 melanoma; more than 100 µM with SNB-75 CNS. Moreover, the TGI in the test with U251 CNS is more than 100 µM; in the test on UACC-257 melanoma it was 87.4 µM; in the test with UO-31 renal, more than 100 µM.

With `COc1cc2c(c(OC)c1OC)C(=O)[C@H](O)[C@H]2NC(N)=O`, the TGI in the test on HCC-2998 colon, in the test with LOX IMVI melanoma, in the test on MDA-N, with SF-539 CNS, in the test with SK-MEL-5 melanoma and in the test with SNB-75 CNS was more than 100 µM each time. Further, the TGI in the test with U251 CNS, in the test on UACC-257 melanoma and in the test on UO-31 renal was more than 100 µM in each case.

Turning to `O=c1cc(-c2cccc(Cl)c2)[nH]c2ncccc12`, the TGI in the test on A498 renal is more than 100 µM; in the test on LOX IMVI melanoma, more than 100 µM; in the test with MDA-N, 0.0374 µM; in the test with SF-539 CNS, 0.374 µM; with SK-MEL-5 melanoma, 1.92 µM; with SNB-75 CNS, more than 56.1 µM. Besides, the TGI with U251 CNS is 29.3 µM; in the test on UACC-257 melanoma it was more than 100 µM; in the test on UO-31 renal it was more than 54 µM.

Regarding `CC1CCCc2c(C#N)c(N)nc(-c3ccc(Cl)cc3)c21` (stereo unspecified), the TGI is more than 100 µM with A498 renal; 36.3 µM with LOX IMVI melanoma; 93.9 µM in the test on MDA-N; 33 µM with SF-539 CNS; 35.9 µM in the test with SK-MEL-5 melanoma; 81.6 µM in the test with SNB-75 CNS. For the same compound, the TGI was more than 100 µM in the test on U251 CNS, 79.9 µM in the test on UACC-257 melanoma and 79.7 µM in the test with UO-31 renal.

Source of the values: PubChem BioAssay (NCI).
